{
  "source": "patent US10653693B2",
  "about": "“PRMT5 inhibitors and uses thereof” (Epizyme, Inc., priority 2014, dated 2020)",
  "key": {"Z-138": {"tested_on": "Z-138", "assay": "Long-term proliferation (LTP) assay", "type": "cell-based", "settings": "Homo sapiens", "experimental": "FIG. 4 illustrates a representative sample of a long-term proliferation assay performed in the mantle cell lymphoma cell line Z-138. Assays were performed in technical triplicates, reading cell viability over 14 days. Growth curves (top panel) were calculated in Excel. IC50 (bottom panel) and IC90 (not shown) values were calculated in GraphPad Prism using a non-linear regression analysis, fixing the top and bottom of the curves to 100 and 0%, respectively. The IC50 values in the Table are indicated in microM. [table]"}, "Maver-1": {"tested_on": "Maver-1", "assay": "Long-term proliferation (LTP) assay", "type": "cell-based", "settings": "Homo sapiens"}, "[1]": {"tested_on": "MCL cell lines (Z-138, Maver-1, Mino, Jeko-1, Granta-519)", "assay": "Gene expression results from MCL cell lines (Table 4)", "type": "cell-based, Human", "settings": "Day 4", "experimental": "The fold change was calculated using the Comparative Ct method ([…]). N=1. A previous RNA Seq study in MCL cell lines using a tool compound with the same cellular potency as Formula B identified expression changes in a number of genes involved in the apoptotic response (unpublished results). These genes included the Bcl-2 family members PUMA and BAX, well characterized drivers of the apoptotic response. Other genes implicated in the apoptotic response were also identified and include PHLDA3, TP53I3, p21, APOBEC3H, TRIM22, and FAS. […] [table]"}, "[2]": {"tested_on": "cellular methylation (symmetric di-methyl arginine) in Maver-1 cells", "assay": "In Cell Western (ICW) methylation assay, SYM11 antibody", "type": "cell-based", "settings": "Homo sapiens, Maver1, 96 h, 4 days of treatment, n=1", "experimental": "[Worded in the source for another cell line; this cell line is reported under the same test.] Percent inhibition was determined and IC50 curves were generated using triplicate wells per concentration of compound. IC50 values were calculated using GraphPad Prism using a 4-parametric fit of the normalized dose response curves with the top fixed to 100%. Z-138 cells were seeded in assay medium at a concentration of 50,000 cells per mL to a 384-well cell culture plate with 50 μL per well. Compound (100 nL) from 384 well source plates was added directly to 384 well cell plate. Plates were incubated at 37° C., 5% CO2 for 96 hours. After four days of incubation, 40 μL of cells from incubated plates were added to poly-d-lysine coated 384 well culture plates (BD Biosciences 356697). Plates were incubated at room temperature for 30 minutes then incubated at 37° C., 5% CO2 for 5 hours. After the incubation, 40 μL per well of 8% paraformaldehyde in PBS (16% paraformaldahyde was diluted to 8% in PBS) was added to each plate and incubated for 30 minutes. Plates were transferred to a Biotek 405 plate washer and washed 5 times with 100 μL per well of wash buffer (1×PBS with 0.1% Triton X-100 (v/v)). […] The average of the ratio values for each control type was calculated and used to determine the percent inhibition for each test well in the plate. […] Percent inhibition was determined and IC50 curves were generated using triplicate wells per concentration of compound. […]"}, "[3]": {"settings": "tested: Z-138, Maver-1, Granta-519, Jeko-1"}},
  "note": "Read-outs that look alike come from different tables or passages of the source.",
  "data": [
    {"molecule": "CC(=O)N1CCC(Nc2cc(C(=O)NC[C@H](O)CN3CCc4ccccc4C3)ccn2)CC1", "note": "[Formula B]", "values": [
      {"measurement": "IC50", "setting": "Z-138; 264 h, 11-day treatment, N = 1, read-out: Formula B LTP IC50", "value": 3, "unit": "nM"},
      {"measurement": "IC90", "setting": "Z-138; 264 h, 11-day treatment, N = 1, read-out: Formula B LTP IC90", "value": 20, "unit": "nM"},
      {"measurement": "IC50", "setting": "Z-138; Table 3, read-out: LTP IC50", "value": 2, "unit": "nM"},
      {"measurement": "IC50", "setting": "Maver-1; Maver1, 264 h, 11-day treatment, N = 1, read-out: Formula B LTP IC50", "value": 26, "unit": "nM"},
      {"measurement": "IC90", "setting": "Maver-1; Maver1, 264 h, 11-day treatment, N = 1, read-out: Formula B LTP IC90", "value": 73, "unit": "nM"},
      {"measurement": "IC50", "setting": "Maver-1; Maver1, Table 3, read-out: LTP IC50", "value": 15.3, "unit": "nM"},
      {"measurement": "Cell Lines Showing Dose Dependent Changes: P21", "setting": "[1]; tested: Z-138, Granta-519, Jeko-1", "value": "Z-138, Granta-519"},
      {"measurement": "Cell Lines Showing Dose Dependent Changes: BAX", "setting": "[1]; tested: Z-138, Maver-1", "value": "Z-138, Maver-1"},
      {"measurement": "Cell Lines Showing Dose Dependent Changes: FAS", "setting": "[1]; [3]", "value": "Granta-519 (slight)"},
      {"measurement": "Cell Lines Showing Dose Dependent Changes: TRIM22", "setting": "[1]; [3]", "value": "Granta-519 (slight)"},
      {"measurement": "Cell Lines Showing Dose Dependent Changes: PUMA", "setting": "[1]; tested: Z-138, Maver-1, Mino, Jeko-1, Granta-519", "value": "Z-138, Maver-1"},
      {"measurement": "IC50", "setting": "[2]", "value": 1.9, "unit": "nM"}
    ]}
  ]
}
